According to patent publication US6737383B1, “Herbicidal oxadiazolidines” (priority 1999, dated 2004):

Assays:
[1] = tested on: bedstraw; test: Test B pre/postemergence bedstraw; assay type: in vivo, Galium aparine
Method in brief: (§1)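 Herbicidal effect was estimated by eye on a ten-point control scale after plants spent twelve to sixteen days in a greenhouse following soil or foliar treatment. Foliar sprays targeted plants at one to four leaves; all doses were formulated in a non-phytotoxic solvent with surfactant.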

[2] = tested on: blackgrass; test: Test B pre/postemergence blackgrass; assay type: in vivo, Alopecurus myosuroides
Method in brief: as §1

[3] = tested on: surinam grass; test: Test B pre/postemergence surinam grass; assay type: in vivo, Brachiaria decumbens
Method in brief: as §1

[4] = tested on: cocklebur; test: Test B pre/postemergence cocklebur; assay type: in vivo, Xanthium strumarium
Method in brief: as §1

[5] = tested on: corn; test: Test B pre/postemergence corn; assay type: in vivo, Zea mays
Method in brief: as §1

[6] = tested on: crabgrass; test: Test B pre/postemergence crabgrass; assay type: in vivo, Digitaria sanguinalis
Method in brief: as §1

[7] = tested on: giant foxtail; test: Test B pre/postemergence giant foxtail; assay type: in vivo, Setaria faberii
Method in brief: as §1

[8] = tested on: morningglory; test: Test B pre/postemergence morningglory; assay type: in vivo, Ipomoea hederacea
Method in brief: as §1

[9] = tested on: pigweed; test: Test B pre/postemergence pigweed; assay type: in vivo, Amaranthus retroflexus
Method in brief: as §1

[10] = tested on: rape; test: Test B pre/postemergence rape; assay type: in vivo, Brassica napus
Method in brief: as §1

[11] = tested on: soybean; test: Test B pre/postemergence soybean; assay type: in vivo, Glycine max
Method in brief: as §1

[12] = tested on: sugar beet; test: Test B pre/postemergence sugar beet; assay type: in vivo, Beta vulgaris
Method in brief: as §1

[13] = tested on: velvetleaf; test: Test B pre/postemergence velvetleaf; assay type: in vivo, Abutilon theophrasti
Method in brief: as §1

[14] = tested on: wheat; test: Test B pre/postemergence wheat; assay type: in vivo, Triticum aestivum
Method in brief: as §1

[15] = tested on: wild oat; test: Test B pre/postemergence wild oat; assay type: in vivo, Avena fatua
Method in brief: as §1

[16] = tested on: purple nutsedge; test: Test B pre/postemergence purple nutsedge; assay type: in vivo, Cyperus rotundus
Method in brief: as §1

[17] = tested on: rice; test: Test B flood test rice; assay type: in vivo, Oryza sativa
Method in brief: (§2)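 Read-out is a visual response score from 0 (no effect) to 10 (complete control), assigned by comparison with untreated controls. Treatment was applied at the 2-leaf stage, and plants stayed in the greenhouse for twelve to sixteen days before scoring.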

[18] = tested on: smallflower flatsedge; test: Test B flood test smallflower flatsedge; assay type: in vivo, Cyperus difformis
Method in brief: as §2

[19] = tested on: duck salad; test: Test B flood test duck salad; assay type: in vivo, Heteranthera limosa
Method in brief: as §2

[20] = tested on: bamyardgrass; test: Test B flood test barnyardgrass; assay type: in vivo, Echinochloa crus-galli
Method in brief: as §2

[21] = Preemergence, Rate 62 g/ha, scale of 0 to 10 where 0 is no effect and 10 is complete control
[22] = Preemergence, Rate 250 g/ha, scale of 0 to 10 where 0 is no effect and 10 is complete control
[23] = Preemergence, Rate 500 g/ha, scale of 0 to 10 where 0 is no effect and 10 is complete control
[24] = Rate 62 g/ha, Postemergence, scale of 0 to 10 where 0 is no effect and 10 is complete control
[25] = Rate 125 g/ha, Postemergence, scale 0 to 10
[26] = Rate 125 g/ha, Preemergence, scale of 0 to 10 where 0 is no effect and 10 is complete control
[27] = Rate 500 g/ha, Postemergence, scale 0 to 10, 0 no effect, 10 complete control
[28] = Rate 62 g/ha, headed Pre-emergence (flood test species), scale 0 to 10 (0 no effect, 10 complete control)
[29] = Rate 125 g/ha, Pre-emergence, flood test species, scale 0 to 10 where 0 is no effect and 10 is complete control
[30] = Rate 250 g/ha, Pre-emergence, flood-test species, scale 0 to 10, 0 is no effect, 10 is complete control
[31] = Rate 500 g/ha, Pre-emergence, flood test species, scale 0 to 10 (0 no effect, 10 complete control)

CCCCCCCCCCCCCCCCCCCn1c(=O)on(C(=O)N(c2ccc(F)cc2)C(C)C)c1=O [Compound 253]
0: Bedstraw plant response rating [1, 21] | Bedstraw plant response rating [1, 22] | Plant response rating, Bedstraw [1, 23] | Bedstraw plant response rating [1, 24] | Bedstraw plant response rating [1, 25] | Bedstraw plant response rating [1, 26] | Plant response rating (0 to 10; 0 is no effect, 10 is complete control), Bedstraw ([1]; Rate 250 g/ha, Postemergence) | Bedstraw plant response rating [1, 27] | Blackgrass plant response rating [2, 21] | Blackgrass plant response rating [2, 22] | Plant response rating, Blackgrass [2, 23] | Blackgrass plant response rating [2, 24] | Blackgrass plant response rating [2, 25] | Blackgrass plant response rating [2, 26] | Plant response rating (0 to 10; 0 is no effect, 10 is complete control), Blackgrass ([2]; Rate 250 g/ha, Postemergence) | Blackgrass plant response rating [2, 27] | B. signalgrass plant response rating [3, 21] | B. signalgrass plant response rating [3, 22] | Plant response rating, B. signalgrass [3, 23] | B. signalgrass plant response rating [3, 24] | B. signalgrass plant response rating ([3]; Rate 125 g/ha, Postemergence, scale 0 (no effect) to 10 (complete control)) | B. signalgrass plant response rating [3, 26] | Plant response rating (0 to 10; 0 is no effect, 10 is complete control), B. signalgrass ([3]; Rate 250 g/ha, Postemergence) | B. signalgrass plant response rating [3, 27] | Cocklebur plant response rating [4, 21] | Cocklebur plant response rating [4, 22] | Plant response rating, Cocklebur [4, 23] | Cocklebur plant response rating [4, 24] | Cocklebur plant response rating [4, 25] | Cocklebur plant response rating [4, 26] | Plant response rating (0 to 10; 0 is no effect, 10 is complete control), Cocklebur ([4]; Rate 250 g/ha, Postemergence) | Cocklebur plant response rating [4, 27] | Corn plant response rating [5, 21] | Corn plant response rating [5, 22] | Plant response rating, Corn [5, 23] | Corn plant response rating [5, 24] | Corn plant response rating [5, 25] | Corn plant response rating [5, 26] | Plant response rating (0 to 10; 0 is no effect, 10 is complete control), Corn ([5]; Rate 250 g/ha, Postemergence) | Corn plant response rating [5, 27] | Crabgrass plant response rating [6, 21] | Crabgrass plant response rating [6, 22] | Plant response rating, Crabgrass [6, 23] | Crabgrass plant response rating [6, 26] | Plant response rating (0 to 10; 0 is no effect, 10 is complete control), Crabgrass ([6]; Rate 250 g/ha, Postemergence) | Crabgrass plant response rating [6, 27] | Giant foxtail plant response rating [7, 21] | Giant foxtail plant response rating [7, 22] | Plant response rating, Giant foxtail [7, 23] | Giant foxtail plant response rating [7, 26] | Plant response rating (0 to 10; 0 is no effect, 10 is complete control), Giant foxtail ([7]; Rate 250 g/ha, Postemergence) | Giant foxtail plant response rating [7, 27] | Morningglory plant response rating [8, 21] | Morningglory plant response rating [8, 22] | Plant response rating, Morningglory [8, 23] | Morningglory plant response rating [8, 26] | Plant response rating (0 to 10; 0 is no effect, 10 is complete control), Morningglory ([8]; Rate 250 g/ha, Postemergence) | Morningglory plant response rating [8, 27] | Redroot pigweed plant response rating [9, 21] | Redroot pigweed plant response rating [9, 22] | Plant response rating, Redroot pigweed [9, 23] | Redroot pigweed plant response rating [9, 26] | Plant response rating (0 to 10; 0 is no effect, 10 is complete control), Redroot pigweed ([9]; Rate 250 g/ha, Postemergence) | Redroot pigweed plant response rating [9, 27] | Rape plant response rating [10, 21] | Rape plant response rating [10, 22] | Plant response rating, Rape [10, 23] | Rape plant response rating [10, 26] | Plant response rating (0 to 10; 0 is no effect, 10 is complete control), Rape ([10]; Rate 250 g/ha, Postemergence) | Rape plant response rating [10, 27] | Soybean plant response rating [11, 21] | Soybean plant response rating [11, 22] | Plant response rating, Soybean [11, 23] | Soybean plant response rating [11, 26] | Soybean plant response rating [11, 27] | Sugarbeets plant response rating [12, 21] | Sugarbeets plant response rating [12, 22] | Plant response rating, Sugarbeets [12, 23] | Sugarbeets plant response rating [12, 26] | Sugarbeets plant response rating [12, 27] | Velvetleaf plant response rating [13, 21] | Velvetleaf plant response rating [13, 22] | Plant response rating, Velvetleaf [13, 23] | Velvetleaf plant response rating [13, 26] | Velvetleaf plant response rating [13, 27] | Wheat plant response rating [14, 21] | Wheat plant response rating [14, 22] | Plant response rating, Wheat [14, 23] | Wheat plant response rating [14, 26] | Wheat plant response rating [14, 27] | Wild oats plant response rating [15, 21] | Wild oats plant response rating [15, 22] | Plant response rating, Wild oats [15, 23] | Wild oats plant response rating [15, 26] | Wild oats plant response rating [15, 27] | Plant response rating, Nutsedge [16, 23] | Plant response rating (0 to 10; 0 is no effect, 10 is complete control), Nutsedge ([16]; Rate 250 g/ha, Postemergence) | Nutsedge plant response rating [16, 27] | Rice plant response rating [17, 28] | Rice plant response rating [17, 29] | Rice plant response rating [17, 30] | Rice plant response rating [17, 31] | S. Flatsedge plant response rating [18, 28] | S. Flatsedge plant response rating [18, 29] | S. Flatsedge plant response rating [18, 30] | S. Flatsedge plant response rating [18, 31] | Ducksalad plant response rating [19, 28] | Ducksalad plant response rating [19, 29] | Ducksalad plant response rating [19, 30] | Ducksalad plant response rating [19, 31] | Barnyardgrass plant response rating [20, 28] | Barnyardgrass plant response rating [20, 29] | Barnyardgrass plant response rating [20, 30] | Barnyardgrass plant response rating [20, 31]
